This note sets out measurements from PMC7277860, “Viridistratins A−C, Antimicrobial and Cytotoxic Benzo[j]fluoranthenes from Stromata of Annulohypoxylon viridistratum (Hypoxylaceae, Ascomycota)” (Biomolecules, 2020).

Data set [1] in a line: Cytotoxicity assay (MTT). The format is cell-based, human. The protocol: (§1) Compounds 1−5 were dissolved as described in the previous section. The cytotoxicity assay was initially performed against the cell lines L929 (mouse fibroblasts), as well as KB 3.1 (human papillomavirus-related endocervical adenocarcinoma), as described previously. A detailed protocol, as well as sources of the cell lines, is given in the Supporting Information.
(§2) After incubating the cell lines with a serial dilution of the test compounds (final range: 37 to 0.6 × 10^−3 µg/mL) for five days, the cells were dyed using 3-(4,5-dimethyl-2-thiazolyl)-2,5-diphenyl-2H-tetrazolium bromide (MTT), which is only converted to its purple formazan derivative by living cells. Then, the intensity of the purple derivative in relation to cells without additive (set to 100% viability) for each concentration of a test compound was quantified. For this, the absorption at 595 nm was measured using a microplate reader to calculate the percentage of cell viability. From this, the half-maximum inhibitory concentration (IC50, in µM) was calculated.
If an inhibition of cell viability with an IC50 < 50 µM was observed, further cell lines were subjected to the test compounds: PC-3 (human prostate adenocarcinoma), SK-OV-3 (human ovary adenocarcinoma), MCF-7 (human breast adenocarcinoma), A431 (human squamous carcinoma) and A549 (human lung carcinoma).
(§3) Protocol: Cytotoxicity Assay
(§4) The ass ay w as co nducted i n 9 6-well flat-bottom mi crotiter plates using the parameters summarised i n Tabl e S 2 and as described in [S2].
(§5) Cell lines L929 and KB 3.1 were incubated at 37 °C under 10 % CO2 in Gibco™ DMEM medium (Thermo Fisher Scientific, Waltham, MA, USA) supplemented with 10 % FBS. A microtiter plate was filled with 120 µL of this suspension (50,000/mL) in each well.
(§6) Seperately, another microtiter plate was filled with 100 µL of growth medium in each well. Then, 50 µL of the test compound sol utions (1 mg/mL) were given to wells of the first column in two replicates (one compound per row). C ell s wi thout addi ti ves, Me O H, and MeOH: DMSO 9+1 were used as negative controls. Starting from the first column, 50 µL of the solutions were gradually transferred to the ne xt col umn, the conte nts thoroughl y mi xed, and 50 µ L transferred to the following column. This created a serial dilution of the test compounds r anging from 333 µg/mL to 1.9 ×10−3 µg/mL. The remai ni ng 50 µL after column twelve were discarded. From this microtiter plate, 60 µL of the sol utions from 111 µg/ mL to 1.9×10−3 µg/mL were given to the first plate containing 120 µL of the cel l suspens i ons (i.e. the hi ghest concentrati on 333 µg/mL was not used). T his resulted i n fi nal compound concent rati ons rangi ng from […]
(§7) After 5 days of incubation under the aforeme ntioned i ncubati on condi ti ons, the half maximum inhibitory concentrati ons (IC 50) were determined using a colorimetric tetrazolium dye MTT assay [S3].
(§8) For this, 20 µL of a 5 mg/mL solution of 3-( 4 ,5 -dimethyl-2-thi azo l yl)-2 ,5 -di phenyl -2H-tetrazolium bromide (MTT) w ere added to each well and incubated for two hours at 37 °C. Then, the microtiter plate was centrifuged (3,000 r p m, 5 mi n) and the supernat ant remo ved by ho l di ng the pl ate upsi de-do wn and gentle shaking. Afterwards, the wells were washed using 100 µL of phosph ate buffered saline (PBS).
(§9) The plate was again centrifuged and the supernatant removed as described before. Then, 100 µL of an isopropanol:HCl solution (1L i sopropanol+4 mL HCl 37 % w/v) were added to the wells. After i ncubati ng fo r 10 mi n at ambi ent te mperature, the a bso r pti o n of the well s at 595 nm was measured wi th an I nfi ni te ® 200 Pro microplate reader (TECAN, Männedorf, Schweiz).
(§10) The absorption values of the cells without additives were averaged and set to 100 % cell viability.
(§11) Then, t he me ans of absorption of the two compound replicates were set in relation to the blank media.
These percentage values were plotted a gainst the concentration range (37 µg/mL to 0.6×10 −3 µg/mL). […]

Data set [2] in a line: Cytotoxicity assay (MTT). It is filed as cell-based. How it is done: as §1, §2, §3, §4, §5, §6, §7, §8, §9, §10, §11
These percentage values were plotted a gainst the concentration range (37 µg/mL to 0.6×10 −3 µg/mL).
The IC50 val ue w as read from the plot ( i n µg/mL) and the uni ts conversed to µM.
If effects were observed wi th cell lines L929 and KB 3.1 (IC50 < 50 µM), the other cell lines were tested using the same protocol.
Table S2: Cytotoxicity assay experiment parameters cell line type No. growth medium […]

A further data set deals with Pseudomonas aeruginosa. Nature of the data set: MIC serial dilution assay. It is filed as cell-based. The conditions noted are these: Pseudomonas aeruginosa PA14; overnight, 37 °C; reference gentamicin 0.1 mg/mL; read-out: Minimum Inhibitory Concentration (MIC). The protocol:
Compounds 1, 2, 4 and 5 were dissolved in MeOH (1 mg/mL) for the antimicrobial activity assay, while compound 3 was dissolved in MeOH: DMSO 9+1 (1 mg/mL). The solvents were also used as negative controls.
Minimum inhibitory concentrations (MIC) were determined in a serial dilution assay, as described previously; a detailed protocol can be found in the Supporting Information. The compounds (1 mg/mL) were diluted to a range of 66.7 to 0.52 µg/mL and incubated with the test organisms overnight. Inhibition of growth was visually evaluated the next day: the MIC is defined as the lowest concentration of the test compound where no growth of the test organism was observed. Various test organisms of fungal and bacterial origin were tested to cover a broad range of microorganisms. This selection is also being used as a standard test panel in our attempts to discover new anti-infectives, as it represents a broad spectrum of pathogens of clinical interest, as well as sensitive indicator strains (bacteria: Bacillus subtilis, Staphylococcus aureus, Micrococcus luteus, Chromobacterium violaceum, Escherichia coli and Pseudomonas aeruginosa; mycobacteria: Mycolicibacterium smegmatis and fungi: Candida albicans, Schizosaccharomyces pombe, Mucor hiemalis, Pichia anomala and Rhodotorula glutinis).
Protocol: Antimicrobial Activi ty Assay
The assay was conducted as a minimum inhi bitory concentration (MIC) assay in 96-well ro und-bottom mi crotiter pl ate s usi ng the p ar ameter s su mm ari zed i n T a bl e S 1 and as already described i n [S1].
Stocks of the test organi sms were generated by growing the organisms o ver ni ght i n 50 mL shaki ng fl asks fi ll ed wi th 25 mL of the growth medi um at 140 rpm (for media and temperatures see Table S1). If the organisms were well grown the ne xt day, which was checked by occurrence of an optical density (OD)>30 of the suspension (OD600 nm for bacteria, OD548 nm for fungi and M. smegma tis) , aliquots of these were stored i n 1.5 mL reaction tube s in a freezer at −80 °C for up to 12 mo nths . Upon use, aliquots were unth awed and the OD of the suspension measured and adjusted by diluting with the respective growth medi um. OD600 nm w as adj usted to 0.01 and OD548 nm to 0.1.
Subse que ntly, 150 µL o f the adjusted suspensions were added to all wells of a 96-wel l microtiter pl ate (one test organi sm per plate). In row A, additional 130 µL of suspensions plus 20 µL of the test compounds (1 mg/mL) and the controls (one compound/column) were added. MeOH as well as MeOH:DMSO 9+1 were used as negative controls, while different positive controls (refer ences) were used for the test organisms (see Tabl e S1). Then, starti ng from row A, 150 µ L of the suspension were transferred to the next row, the contents thoroughly mixed, and 150 µ L transferred to the following row.
The remaining 150 µ L after row H were discarded. […]
compounds, ranging from 66.7 µg/mL i n row A to 0.52 µg/mL i n row H.
The microtiter plates were then incubated overnight o n a microplate shaker at 800 rpm at 30 or 37 °C (see Table S1) and were visually evaluated the next day. The MIC is defined as the lowest concentration were no growth of the test organism was o bserved. A lower MIC thus corresponds to a higher antimicrobial activity of the test compound.
Table S1: MIC assay ex per i men t parameters test organism strain No. growth incubation positive control (reference) […]
Pseudomonas a erugi nosa PA14 MHB 1 37 gent amici n 0.1 mg/mL […]
Rhodotorula glutinis DSM10134 MYC 3 30 nyst ati n 1.0 mg/mL
1 MHB: Müller-Hinton Broth (SN X927.1, Ca r l Roth GmbH, Karlsruhe, Germany) 2 7H9+ADC: Middlebrook 7H9 Broth Base + Middlebrook ADC Growth Supplement (SN M0678+M0553, Merck, Darmstadt, Germany)
3 MYC: 1 % w/v, bacto peptone, 1% w/v yeast extract, 2 % w /v glycerol, pH 6.3 [S1] Helaly, S.E.; Ashrafi, S.; Teponno, R.B.; Bernecker, S.; Dababat, A.A.; Maier, W.; Stadler, M.
Nematicidal Cyclic Lipodepsipeptides and a Xanthocillin Derivative from a Phaeosphariaceous […]

Broadly, the IC50 is the concentration that gives 50% inhibition.

Converted amounts (≈) assume the structure as drawn.

For the compound `C/C(=C\c1csc(C)n1)[C@@H]1C[C@@H]2O[C@]2(C)CCC[C@H](C)[C@H](O)[C@@H](C)C(=O)C(C)(C)[C@@H](O)CC(=O)O1` [epothilone B, reference compound], the 50% inhibitory concentration (IC50) at 5 days in “Cytotoxicity assay (MTT) [1]” (A431 human squamous AC) worked out at 50 pM; in the data set “Cytotoxicity assay (MTT) [1]” (A549 human lung carcinoma), 80 pM; in the data set “Cytotoxicity assay (MTT) [1]” (MCF-7 human breast AC) it was 120 pM; in the data set “Cytotoxicity assay (MTT) [1]” (PC-3 human prostate AC), 80 pM; in the data set “Cytotoxicity assay (MTT) [1]” (SK-OV-3 human ovary AC), 340 pM; in the data set “Cytotoxicity assay (MTT) [2]” (KB 3.1 human endocervical adenocarcinoma), 790 pM. The IC50 at 5 days in “Cytotoxicity assay (MTT) [2]” (L929 mouse fibroblasts) came to 60 pM.

For `CNC(C)C1CCC(N)C(OC2C(N)CC(N)C(OC3OCC(C)(O)C(NC)C3O)C2O)O1` (centres unmarked) [gentamicin, reference compound], in the data set on Pseudomonas aeruginosa, the MIC was 0.4 µg/mL (≈ 0.838 µM).
